Here are results for 17 compounds from article PMC7587356, “High-Throughput Screening for Inhibitors of the SARS-CoV-2 Protease Using a FRET-Biosensor” (Molecules, 2020).

Counter-ions that a name gives are not always drawn. Like-named read-outs stand apart in the source and are kept apart here.

For the experiment, the target named is SARS-CoV-2 3CLpro (Severe acute respiratory syndrome coronavirus 2, UniProt P0DTD1). Put plainly: biochemical. Type of experiment: biochemical. Set-up: Replicate_1 / Replicate_2 / mean / mean (LOPAC_screen_w_protease): unit not given here. The settings on record: for inhibition at 5 µM: 4 h.
[1] abbreviates: sheet LOPAC_screen_w_protease, primary screen of LOPAC1280 at 5 µM with protease, mean of the two replicates, read-out: mean.
Where [2] appears, read: sheet LOPAC_screen_w_protease, primary screen of LOPAC1280 at 5 µM with protease, replicate 1, read-out: Replicate_1.
The mark [3] stands for this setting: sheet LOPAC_screen_w_protease, primary screen of LOPAC1280 at 5 µM with protease, replicate 2, read-out: Replicate_2.
[4] abbreviates: sheet LOPAC_screen_w_protease, LOPAC1280 primary screen at 5 µM, with protease, mean of the two replicates.
[5] abbreviates: sheet LOPAC_screen_w_protease, LOPAC1280 primary screen at 5 µM, with protease, replicate 1.
[6] abbreviates: sheet LOPAC_screen_w_protease, LOPAC1280 primary screen at 5 µM, with protease, replicate 2.
[7] abbreviates: LOPAC1280 primary screen with protease, 5 µM compound, replicate 1, read-out: Replicate_1 (LOPAC_screen_w_protease).
Where [8] appears, read: LOPAC1280 primary screen with protease, 5 µM compound, replicate 2, read-out: Replicate_2 (LOPAC_screen_w_protease).
The mark [9] stands for this setting: LOPAC1280 primary screen with protease, 5 µM compound, mean of two replicates.

Regarding `Cc1ccc(=O)n(-c2ccccc2)c1` [Pirfenidone], the inhibition at 5 µM is 4.02% under setting [1], 2.71% under setting [2] and 5.33% under setting [3].
Under setting [4], `COc1[nH]c2ccc(F)cc2c1C(=O)OCC1CCN(CCNS(C)(=O)=O)CC1.NS(=O)(=O)O` [GR 125487 sulfamate salt] returned a mean of 0.6171. Further, the Replicate_1 under setting [5] stood at 2.002. This compound also yielded a Replicate_2 under setting [6] of -0.7681.
Take `C[N+](C)(C)CCC(=O)c1cccc2ccccc12.[I-]`: the “mean (LOPAC screen with protease)” value (sheet LOPAC_screen_w_protease, primary screen at 5 µM, mean of two replicates) came out at 102.503. Besides, the “Replicate_1 (LOPAC screen with protease)” value (sheet LOPAC_screen_w_protease, primary screen at 5 µM, replicate 1) is listed as 102.129. Besides, the “Replicate_2 (LOPAC screen with protease)” value (sheet LOPAC_screen_w_protease, primary screen at 5 µM, replicate 2) was 102.878.
Where the note is “sheet LOPAC_screen_w_protease, LOPAC1280 primary screen with protease, 5 µM compound, mean of the two replicates”, `COc1ccc2c(c1O)-c1cccc3c1[C@@H](C2)N(C)CC3.Cl` [R(-)-Apocodeine hydrochloride] showed a mean of 6.058. The Replicate_1 (sheet LOPAC_screen_w_protease, LOPAC1280 primary screen with protease, 5 µM compound, replicate 1) worked out at 6.597. This compound also registered a Replicate_2 (sheet LOPAC_screen_w_protease, LOPAC1280 primary screen with protease, 5 µM compound, replicate 2) of 5.52.
For the compound `CN[C@H](CC(=O)O)C(=O)O` [N-Methyl-D-aspartic acid], the inhibition at 5 µM was determined as 3.42% under setting [1], 4.04% under setting [2] and 2.81% under setting [3].
Regarding `C[N+](C)(C)CCCCCCCCCC[N+](C)(C)C.[Br-].[Br-]` [Decamethonium dibromide], under “sheet LOPAC_screen_w_protease, LOPAC1280 at 5 µM, mean of two replicates”, the mean is reported as 1.23. Besides, under “sheet LOPAC_screen_w_protease, LOPAC1280 at 5 µM, replicate 1”, the Replicate_1 worked out at 2.965. This compound had a Replicate_2 (sheet LOPAC_screen_w_protease, LOPAC1280 at 5 µM, replicate 2) of -0.5048.
Compound `COC1=C(OC)C(=O)c2ccccc2C1=O` [2,3-Dimethoxy-1,4-naphthoquinone] had a mean under setting [4] of 0.8524. The compound also registered a Replicate_1 under setting [5] of 0.1505. The Replicate_2 under setting [6] worked out at 1.554.
In the case of `CC[C@@H](CO)NC(=O)[C@@H]1C=C2c3cccc4[nH]cc(c34)C[C@H]2N(C)C1` [Methylergonovine maleate], the inhibition at 5 µM is, setting by setting: (read-out: Replicate_1) 1.27%; (read-out: Replicate_2) 0.625%; (read-out: mean) 0.949%.
As for `O=C(O)c1ccccc1Nc1ccccc1` [N-Phenylanthranilic acid], the inhibition at 5 µM is, setting by setting: (sheet LOPAC_screen_w_protease, primary screen with protease, 5 µM, mean of two replicates, read-out: mean) 0.157%; (sheet LOPAC_screen_w_protease, primary screen with protease, 5 µM, replicate 1, read-out: Replicate_1) 0.635%; (sheet LOPAC_screen_w_protease, primary screen with protease, 5 µM, replicate 2, read-out: Replicate_2) -0.322%.
Regarding `COc1cc2c(CCNC(C)=O)c[nH]c2cc1O` [6-Hydroxymelatonin], the mean (sheet LOPAC_screen_w_protease, primary screen with protease, mean of two replicates) was 2.302. Moreover, the Replicate_1 (sheet LOPAC_screen_w_protease, primary screen with protease, replicate 1) was 3.2941. Moreover, the Replicate_2 (sheet LOPAC_screen_w_protease, primary screen with protease, replicate 2) is 1.31.
In the case of `O=C(CCCN1CCC2(CC1)C(=O)NCN2c1ccccc1)c1ccc(F)cc1` [Spiperone hydrochloride], the inhibition at 5 µM was determined as 2.31% under setting [7] and 1.15% under setting [8]. Further, the “mean (LOPAC_screen_w_protease)” value under setting [9] is reported as 1.727.
As for `Nc1nc2ccc(Cl)cc2c2nc(-c3ccco3)nn12` [CGS-15943], the inhibition at 5 µM is 3.31% (read-out: Replicate_1), 3.81% (read-out: Replicate_2) and 3.56% (read-out: mean).
Take `C[N+](C)(C)CCOC(N)=O` [Carbachol]: the inhibition at 5 µM came to 1.69% under setting [7] and 1.06% under setting [8]. The “mean (LOPAC_screen_w_protease)” value under setting [9] is listed as 1.3763.
In turn, `CC(C)Oc1cccnc1N(C)C1CCN(Cc2ccccc2)CC1.O=C(O)/C=C\C(=O)O` [U-101958 maleate] yielded a mean (sheet LOPAC_screen_w_protease, primary screen with protease, 5 µM, mean of two replicates) of 0.02682. The Replicate_1 (sheet LOPAC_screen_w_protease, primary screen with protease, 5 µM, replicate 1) is listed as 1.919. For the setting “sheet LOPAC_screen_w_protease, primary screen with protease, 5 µM, replicate 2”, the Replicate_2 is listed as -1.865.
As to `Cc1ccc(Cl)c(Nc2ccccc2C(=O)O)c1Cl` [Meclofenamic acid sodium], the inhibition at 5 µM came to 1.45% (read-out: Replicate_1), 5.52% (read-out: Replicate_2) and 3.48% (read-out: mean).
For the compound `C=C/C(C)=C/[C@@]1(C)SC(=O)C(C)=C1O` [Thiolactomycin], the inhibition at 5 µM runs as follows: (sheet LOPAC_screen_w_protease, LOPAC1280 primary screen with protease, 5 µM compound, mean of the two replicates, read-out: mean) 4.16%; (sheet LOPAC_screen_w_protease, LOPAC1280 primary screen with protease, 5 µM compound, replicate 1, read-out: Replicate_1) 2.88%; (sheet LOPAC_screen_w_protease, LOPAC1280 primary screen with protease, 5 µM compound, replicate 2, read-out: Replicate_2) 5.43%.
Under “sheet LOPAC_screen_w_protease, LOPAC1280 primary screen at 5 µM, with protease, mean of two replicates”, `O=C(c1cc(O)c(O)c([N+](=O)[O-])c1)c1ccccc1F` [Ro 41-0960] yielded a mean of -0.9763. The same compound came in with a Replicate_1 under setting [5] of -1.184. The Replicate_2 under setting [6] is given as -0.7687.
